Tests used:
Assay type in all cases: cell-based
HeLa cells = assay: Parallel assay of incorporation of [35S]methionine into HeLa cells on CYTODEX/YOx Microcarriers (Example 3); details: cycloheximide 10 μM, without inhibitor 900 IODs, 'no cell' controls 650 IODs, FIG. 4
Method: (§1) 40 mg of YOx-loaded CYTODEX™ Microcarrier beads were dispensed into suitable sterile containers and allowed to settle. The supernatant was removed from each microcarrier pellet and the beads resuspended in 5 ml of either complete Ham's F12 nutrient mix (Sigma N-4888) or DMEM (Sigma D-6546), both containing 10% FCS, 2 mM L-glutamine and 50 μg/ml streptamycin/50 IU/ml penicillin. The microcarriers were incubated at 37° C. for thirty minutes without rolling.
(§2) 10×10^6 CHO or HeLa cells in 5 ml complete medium were added to separate microcarrier preparations and the cultures incubated at 37° C. for thirty minutes without rolling. After the initial incubation cultures were incubated overnight at 37° C. with rolling. Following the overnight incubation, unattached cells were removed and the beads resuspended in 10 ml complete culture medium. Microcarriers/cells were maintained in culture until the cell density had reached a sufficient level. Culture medium was replaced every two days.
(§3) Cycloheximide was prepared as a 1 mM stock in phosphate buffered saline and added to the cultures at a final concentration of 10 μM. […]
(§4) Each microcarrier preparation was allowed to settle and the growth medium removed. […] Plates were read on the LEADseeker™ Imaging System with a 5 minute exposure time to detect cellular associated methionine.

CHO cells [1] = assay: Parallel assay of incorporation of [35S]methionine into CHO cells on CYTODEX/YOx Microcarriers (Example 3); details: cycloheximide 10 μM, without inhibitor 1700 IODs, 'no cell' controls 650 IODs, FIG. 4
Method: as §1, §2, §3, §4

CHO cells [2] = assay: Uptake of radiolabelled methionine into CHO cells cultured on CYTODEX/YOx Microcarriers (Example 2); details: cycloheximide 10 μM final concentration; CCD imaging; FIG. 1
Method: CYTODEX™ and CYTODEX™/YOx Microcarrier beads were dispensed into sterile universal containers. Beads were collected by centrifugation at 100 rpm for one minute. Supernatants were removed and replaced with complete Ham's F12 nutrient mix containing 10% (v\v) FCS. Beads were incubated with rolling at 37° C. for 30 minutes. Beads were harvested by centrifugation at 100 rpm for 1 minute. Spent medium was removed and replaced with 10^7 cells in 500 μl or less. Beads plus cells were incubated at 37° C. for 20 minutes to permit cell attachment to beads. Fresh Ham's F12 medium was added to a final volume of 4 ml containing 5 mg/ml beads for [^35S] and 10 mg/ml for [^14C] or [^3H]. Beads were left to roll overnight at 37° C. Following overnight incubation, beads/cells were harvested by centrifugation at 100 rpm for 1 minute. Supernatant containing unattached cells was removed. Microcarrier beads were washed with PBS (×1) and resuspended in methionine deficient DMEM supplemented with radiolabelled methionine. Cultures were returned to 37° C. with rolling. [^3H]Methionine and [^14C] or [^35S]methionine were included at final concentrations of 8 μCi/ml and 4 μCi/ml respectively. […]

In the case of `C[C@@H]1C[C@@H]([C@H](O)CC2CC(=O)NC(=O)C2)C(=O)[C@@H](C)C1` [cycloheximide], the “signal of [35S]methionine incorporation in the presence of protein synthesis inhibitor” value (HeLa cells) is reported as 600 IODs, the “signal of [35S]methionine incorporation in the presence of protein synthesis inhibitor” value (CHO cells [1]) is reported as 650 IODs and the “uptake of [35S]methionine into CHO cells” value (CHO cells [2]) is reported as “inhibited”.

Source: US7101719B2, “Support and method for cell based assays” (GE Healthcare Limited, priority 2000, dated 2006)
